Experiments:
TAAR1 = biological target: T1, TAAR1 (Homo sapiens, UniProt Q96RJ0); test: BRET-based cellular cAMP (EPAC biosensor) assay of TAAR1 agonism in transfected HEK-293 cells
T1 sequence (Q96RJ0 1-339): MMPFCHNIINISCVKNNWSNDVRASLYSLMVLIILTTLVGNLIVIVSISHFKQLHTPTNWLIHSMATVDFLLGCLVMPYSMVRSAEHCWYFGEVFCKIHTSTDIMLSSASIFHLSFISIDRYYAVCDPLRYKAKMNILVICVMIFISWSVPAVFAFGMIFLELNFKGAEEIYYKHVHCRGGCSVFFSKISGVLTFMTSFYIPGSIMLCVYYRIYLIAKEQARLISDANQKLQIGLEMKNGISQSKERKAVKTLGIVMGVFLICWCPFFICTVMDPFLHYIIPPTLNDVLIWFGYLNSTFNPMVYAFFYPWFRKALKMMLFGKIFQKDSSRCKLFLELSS
Experimental: The Bioluminescence Resonance Energy Transfer approach (BRET) has been used for functional activity experiments. HEK-293 cells were transiently transfected with cDNA for TAARs and cAMP BRET biosensor (EPAC) and then plated in a 96-well plate, as described [23]. All compounds were tested at the initial concentration of 10 µM. […] A natural agonist of TAAR1 β-phenylethylamine (β-PEA) was used as a positive control.

DAT-KO rats = test: Spontaneous locomotor hyperactivity of dopamine transporter knockout (DAT-KO) rats; format: in vivo, rat
Experimental: (§1) MK-801 (dizocilpine, (+)-5-methyl-10,11-dihydro-5H-dibenzo-[a,d]-cyclohepten-5,10-imine maleate; Sigma-Aldrich, St. Louis, MO, USA) was dissolved in saline. Compound 62 (LK00764) was dissolved in 10% Tween 80 saline solution. All solutions were made fresh shortly before injections. Drug doses were tested in a pseudo-random order derived from Latin square design with at least 72 h between consecutive tests. All drugs and vehicles were administered intraperitoneally (i.p.) in the volume of 1 mL/kg. Drug doses are reported as salts. Selection of the MK-801 dose (0.2 mg/kg) was based the previous experience with the compound [24]. All locomotor activity tests (duration—60 min) were performed 15 min after the administration of compounds.
(§2) We evaluated locomotor activity of rats in the Actometer apparatus. A detailed description of the apparatus has been presented before. Shortly, each box of the apparatus was equipped by photocell-based infrared sensors to assess horizontal and vertical activity. Wistar rats were tested in the apparatus following a one-week habituation period (baseline period). […]
Animals without DAT have a disrupted re-uptake of dopamine resulting in remarkably elevated extracellular dopamine levels and spontaneous locomotor hyperactivity. […] Thus, we next evaluated the effects of LK00764 (1–10 mg/kg, i.p.) on spontaneous locomotor hyperactivity of DAT-KO rats (n = 9).

Wistar male rats = test: Stress-induced hyperthermia (SIH) test; format: in vivo, rat; conditions: n = 8
Experimental: SIH test is commonly used to evaluate the potential anti-anxiety effect of drugs. Thermometry was performed rectally in rats with a BIOSEB thermometer. Eight Wistar male rats were injected i.p. with vehicle or LK00764, dissolved in 10% tween 80 saline solution. Latin square design was used for the experiment. The first measurement was performed directly before the injection and the second measurement was performed 15 min later. The difference between the first and the second temperature was calculated.
Another behavioral paradigm known to be affected by TAAR1 agonists is the stress-induced hyperthermia test, which is believed to be a sensitive approach to evaluate the anxiolytic action of compounds [10, 42, 39a]. Thus, compound 62 (LK00764) was evaluated in this test at doses of 3 and 5 mg/kg, i.p. (Figure 7). At both doses, this compound was effective in suppressing stress-induced hyperthermia in rats (p < 0.05 and p < 0.001 for 3 and 5 mg/kg, respectively; Dunn’s test).

[1] = test system: MK-801-treated Wistar rats; test: MK-801-induced hyperactivity in rats (Actometer); format: in vivo, rat
Experimental: as §1
We evaluated locomotor activity of rats in the Actometer apparatus. A detailed description of the apparatus has been presented before. […]
Glutamate NMDA receptor antagonist-induced hyperactivity in rodents is commonly used as a pharmacological animal model of schizophrenia in the screening of potential antipsychotics. […] Thus, we used MK-801 (0.2 mg/kg, i.p.) treatment to induce hyperactivity in rats and analyzed the effects of compound 62 (LK00764) at doses of 0.3, 1, 3, 5, and 10 mg/kg, i.p. on locomotor activity of MK-801-treated Wistar rats.

intact Wistar rats = test: Spontaneous locomotor activity of intact rats (Actometer); format: in vivo, rat; conditions: 0.3–10 mg/kg i.p., n = 9
Experimental: as §1
as §2, with “period). During this period, the animals were placed in locomotor activity boxes for 60 min per day, 6 days a week to habituate them to the environment.” for “period).”
Next, we analyzed the locomotor effects of compound 62 (LK00764, 0.3–10 mg/kg, i.p.) on the additional group of intact rats (n = 9).

Cl.NCCc1nnc(-c2ccc(-c3ccc(Cl)cc3)cc2)[nH]1 [Compound 62, 2-(5-(4′-Chloro-(1,1′-biphenyl)-4-yl)-4H-1,2,4-triazol-3-yl)ethan-1-amine Hydrochloride]
EC50 (TAAR1): 4 nM | potency relative to Ulotaront (times higher) (TAAR1): more than 30 times | Emax (TAAR1; HEK293, read-out: Emax: maximum observed activation of TAAR1 relative to that observed for 1 μM of β-PEA): 101% | melting point: 247 to 249 °C | horizontal and vertical activity of DAT-KO rats (DAT-KO rats; 1–10 mg/kg i.p., n = 9, Friedman p < 0.05): significant dose-dependent decrease | locomotor hyperactivity of DAT-KO rats vs vehicle (DAT-KO rats; only the highest tested dose, 10 mg/kg i.p., Dunnett's test): significantly (p < 0.05) diminished | suppression of stress-induced hyperthermia (Wistar male rats; 3 mg/kg i.p., p < 0.05 Dunn's test): effective | suppression of stress-induced hyperthermia (Wistar male rats; 5 mg/kg i.p., p < 0.001 Dunn's test): effective | effect on MK-801-induced hyperactivity (horizontal and vertical activity) ([1]; 0.3, 1, 3, 5, 10 mg/kg i.p., MK-801 0.2 mg/kg i.p., Friedman test, horizontal p < 0.05, vertical p < 0.01, n = 7): dose-dependently mitigated | effect on horizontal and vertical locomotor activity vs vehicle in MK-801-treated rats ([1]; doses of 5 and 10 mg/kg i.p., Dunnett's test p < 0.05): significant | vertical activity of intact rats (intact Wistar rats; Friedman p < 0.001): decreased | horizontal activity of intact rats (intact Wistar rats; Friedman p = 0.60): did not affect

From paper PMC9687812, “Discovery of Trace Amine-Associated Receptor 1 (TAAR1) Agonist 2-(5-(4′-Chloro-[1,1′-biphenyl]-4-yl)-4H-1,2,4-triazol-3-yl)ethan-1-amine (LK00764) for the Treatment of Psychotic Disorders” (Biomolecules, 2022)
